We go through 27 substances from patent US6835382B2, “Ii peptide therapeutics to enhance antigen presentation” (University of Massachusetts, priority 1996, dated 2004).

Non-standard residues stand in square brackets, D forms with d. Cit = NC(=O)NCCC[C@H](N)C(=O)O; Orn = NCCC[C@H](N)C(=O)O

For test [1], the system named is murine E^k MHC class II allele. Nature of the test: simultaneous assay, E^k allele (CH27 APC, TPc9.1 T hybridoma, THMCC82-103 or PGCC81-104). In kind it is cell-based. In outline: (§1)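 Antigenic peptide, mitomycin C-treated APC, effector compound and allele-restricted T hybridoma cultured together for 24 h. Supernatant then transferred to interleukin-dependent HT-2 cells. T cell activation quantified as [3H]TdR uptake by HT-2 cells.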

For test [2], the target named is T1, murine E^d MHC class II allele (Mus musculus, UniProt P01904+P01915).
T1 sequence (P01904 26-255): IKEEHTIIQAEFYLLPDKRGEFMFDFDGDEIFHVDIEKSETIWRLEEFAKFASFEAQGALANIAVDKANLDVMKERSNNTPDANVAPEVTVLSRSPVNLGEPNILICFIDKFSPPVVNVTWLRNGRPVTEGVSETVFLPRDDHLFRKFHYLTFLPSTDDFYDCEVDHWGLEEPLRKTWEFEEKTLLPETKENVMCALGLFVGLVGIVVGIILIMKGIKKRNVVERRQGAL
T1 sequence (P01915 27-264 limits assumed): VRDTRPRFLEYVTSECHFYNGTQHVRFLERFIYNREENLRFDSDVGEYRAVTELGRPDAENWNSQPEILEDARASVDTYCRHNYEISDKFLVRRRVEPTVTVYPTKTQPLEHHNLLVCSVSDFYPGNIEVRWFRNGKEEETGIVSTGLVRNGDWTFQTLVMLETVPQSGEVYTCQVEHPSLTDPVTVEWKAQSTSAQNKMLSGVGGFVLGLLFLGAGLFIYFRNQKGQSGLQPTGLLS
The test is described as follows: simultaneous assay, E^d allele (A20 APC, G28.C9 T hybridoma, HEL106-116; HT-2 [3H]TdR readout). In kind it is cell-based. On the set-up: The A20 and CH27 B cell lymphoma lines express H-2^d and H-2^k alleles, respectively; endogenous in cells; host or cells: A20 B cell lymphoma (mitomycin C-treated or paraformaldehyde-fixed). In outline: as §1

Where [3] appears, read: Table 11, AE peptide 64 μM, supernatant 1:4.
[4] abbreviates: Table 14, AE peptide 64 μM, supernatant 1:4.
Setting [5] is: Table 11, AE peptide 64 μM, supernatant 1:8.
[6] abbreviates: Table 2, AE peptide 64 μM, 0.05 μM PGCC81-104, supernatant 1:2.
Where [7] appears, read: Table 2, AE peptide 64 μM, 0.05 μM HEL106-116, supernatant 1:2.
[8] abbreviates: Table 7, AE peptide 64 μM, supernatant 1:4, normalized by a factor of 5.
The mark [9] stands for this setting: Table 7, AE peptide 64 μM, supernatant 1:4.
Setting [10] is: Table 4, AE109 homolog 64 μM, supernatant 1:2.
The mark [11] stands for this setting: Table 9, AE peptide 64 μM, supernatant 1:4, normalized by a factor of 5.
Where [12] appears, read: Table 16, AE peptide 4 μM, supernatant 1:8.
Where [13] appears, read: Table 9, AE peptide 64 μM, supernatant 1:4.
The mark [14] stands for this setting: Table 15, AE peptide 16 μM, supernatant 1:4.

On to Ac-LRMKLP k-NH2 [AE166], for which the “Times Baseline Response, E^k” value in test [1] (setting [3]) is given as 3.4; in test [1] (setting [4]), 40.4. The “Times Baseline Response, E^d” value stood at 26.4 in test [2] (setting [5]) and 14.7 in test [2] (setting [4]).
Turning to Ac-NLQLDSLRMKLPKSAK-NH2 [AE150], the “Times Baseline Response, E^k” value in test [1] (setting [6]) was determined as 0.8. For the same substance, the “Times Baseline Response, E^d” value in test [2] (setting [7]) was determined as 3.2.
On to “Ac-LRMK F PK-NH2 (Ac-LRMKFPK-NH2) [AE234]”, for which the “Times Baseline Response, E^k” value in test [1] (setting [8]) stood at 16.6. Moreover, the “Times Baseline Response, E^d” value in test [2] (setting [9]) was determined as 14.2.
Consider Ac-YAMKLPKSAK-NH2 [AE121], for which the “Times Baseline Response, E^k” value in test [1] (setting [10]) is listed as 1.0; in test [1] (Table 10, AE peptide 64 μM, supernatant 1:2 (first value)), 21.6; in test [1] (Table 10, AE peptide 64 μM, supernatant 1:4 (second value)), 19.7. The “Times Baseline Response, E^d” value is listed as 1.1 in test [2] (setting [10]); 1.9 in test [2] (Table 10, AE peptide 16 μM (second value), supernatant 1:2); 2.7 in test [2] (Table 10, AE peptide 64 μM (first value), supernatant 1:2).
On to “Ac-LRMKLP N-NH2 (Ac-LRMKLPN-NH2) [AE246]”, for which the figures for the “Times Baseline Response, E^k” value in test [1] (setting [11]) and in test [1] (setting [12]) were 16.4 and 1.0, respectively. For the same substance, the “Times Baseline Response, E^d” value in test [2] (setting [13]) came out at 7.3; in test [2] (setting [12]), 21.8.
As to Ac-LRNKNPF-NH2 [AE348], the “Times Baseline Response, E^k” value in test [1] (setting [14]) was found to be 6.3. In addition, in test [2] (setting [14]), the “Times Baseline Response, E^d” value was found to be 13.1.
For Ac-L r MKLPK-NH2 [AE161], the “Times Baseline Response, E^k” value in test [1] (setting [3]) is 1.1. The “Times Baseline Response, E^d” value in test [2] (setting [5]) came to 4.0.
Ac-LRMKLP[Cit]-NH2 [AE241]: the “Times Baseline Response, E^k” value worked out at 12.2 in test [1] (setting [11]) and 1.0 in test [1] (setting [12]). Moreover, the “Times Baseline Response, E^d” value in test [2] (setting [13]) was found to be 3.4; in test [2] (setting [12]), 7.1.
Ac-YRMKLP-NH2 [AE115]: the “Times Baseline Response, E^k” value in test [1] (Table 1, AE peptide 16 μM (second value), 0.075 μM THMCC82-103, supernatant 1:2) came out at 3.8; in test [1] (Table 1, AE peptide 64 μM (first value), 0.075 μM THMCC82-103, supernatant 1:2) it was 18.6. The “Times Baseline Response, E^d” value in test [2] (Table 1, AE peptide 16 μM (second value), 0.4 μM HEL106-116, supernatant 1:4) worked out at 5.7; in test [2] (Table 1, AE peptide 64 μM (first value), 0.4 μM HEL106-116, supernatant 1:4), 19.9.
On to Ac-LR (mL) KLPK-NH2 [AE302], for which, in test [1] (setting [4]), the “Times Baseline Response, E^k” value came to 26.1. For the same substance, the “Times Baseline Response, E^d” value in test [2] (setting [4]) is 4.5.
Ac-LRLKYPK-NH2 [AE301]: the results for the “Times Baseline Response, E^k” value in test [1] (setting [4]), in test [1] (setting [14]) and in test [1] (setting [12]) were 59.9, 46.6 and 15.5, respectively. The “Times Baseline Response, E^d” value was determined as 12.5 in test [2] (setting [4]), 30.7 in test [2] (setting [14]) and 20.1 in test [2] (setting [12]).
“Ac-LR L KLPK-NH2 (Ac-LRLKLPK-NH2; not fully specified; printed as Ac-LR L KLPK-NH2) [AE206]”: the “Times Baseline Response, E^k” value in test [1] (Table 5, AE peptide 64 μM, supernatant 1:4, normalized to E^d by a factor of 10) worked out at 33.9; in test [1] (setting [4]), 53.5; in test [1] (setting [14]), 35.3; in test [1] (setting [12]), 1.3. Also, the “Times Baseline Response, E^d” value is 11.9 in test [2] (Table 5, AE peptide 64 μM, supernatant 1:4); 12.7 in test [2] (setting [4]); 25.5 in test [2] (setting [14]); 15.5 in test [2] (setting [12]).
Ac-Y L MKLPKSAK-NH2 [AE142]: the “Times Baseline Response, E^k” value in test [1] (setting [10]) is listed as 1.0. Moreover, in test [2] (setting [10]), the “Times Baseline Response, E^d” value came to 0.8.
As for Ac-LDSLRMKLPKSAK-NH2 [AE153], the “Times Baseline Response, E^k” value in test [1] (setting [6]) is 1.4. Also, in test [2] (setting [7]), the “Times Baseline Response, E^d” value stood at 8.5.
For the substance Ac-LRLKWPK-NH2 [AE309], the entries for the “Times Baseline Response, E^k” value in test [1] (setting [4]), in test [1] (setting [14]) and in test [1] (setting [12]) were 48.2, 38.0 and 1.8, respectively. Moreover, the “Times Baseline Response, E^d” value in test [2] (setting [4]) came to 12.1; in test [2] (setting [14]) it was 13.1; in test [2] (setting [12]) it was 20.0.
As for Ac-LRM k LPK-NH2 [AE163], the “Times Baseline Response, E^k” value in test [1] (setting [3]) amounted to 1.1. Moreover, the “Times Baseline Response, E^d” value in test [2] (setting [5]) was determined as 2.4.
Take “Ac-LRMK Q PK-NH2 (Ac-LRMKQPK-NH2) [AE233]”: the “Times Baseline Response, E^k” value in test [1] (setting [8]) came out at 17.0. The “Times Baseline Response, E^d” value in test [2] (setting [9]) came out at 11.5.
For the substance Ac-LR (mL) KyPk-NH2 [AE306], the “Times Baseline Response, E^k” value in test [1] (setting [4]) worked out at 13.7. Moreover, the “Times Baseline Response, E^d” value in test [2] (setting [4]) is reported as 3.2.
As for “Ac-LRMK D PK-NH2 (Ac-LRMKDPK-NH2) [AE230]”, in test [1] (setting [8]), the “Times Baseline Response, E^k” value came to 1.1. The “Times Baseline Response, E^d” value in test [2] (setting [9]) turned out to be 0.6.
Consider Ac-Y[Orn]MKLPKSAK-NH2 [AE130], for which the “Times Baseline Response, E^k” value in test [1] (setting [10]) is 1.1. The “Times Baseline Response, E^d” value in test [2] (setting [10]) is 0.9.
As to Ac-SLRMKLPKSAK-NH2 [AE155], the “Times Baseline Response, E^k” value in test [1] (setting [6]) came out at 8.4. The “Times Baseline Response, E^d” value in test [2] (setting [7]) was 23.4.
For Ac-Y D MKLPKSAK-NH2 [AE135], the “Times Baseline Response, E^k” value in test [1] (setting [10]) is 1.0. For the same substance, in test [2] (setting [10]), the “Times Baseline Response, E^d” value turned out to be 1.2.
As for Ac-LRLKyPK-NH2 [AE308], in test [1] (setting [4]), the “Times Baseline Response, E^k” value is recorded as 45.5. Besides, the “Times Baseline Response, E^d” value in test [2] (setting [4]) worked out at 12.6.
Turning to Ac-Y E MKLPKSAK-NH2 [AE136], in test [1] (setting [10]), the “Times Baseline Response, E^k” value was determined as 0.7. Further, in test [2] (setting [10]), the “Times Baseline Response, E^d” value is 0.9.
For the substance Ac-Y F MKLPKSAK-NH2 [AE139], the “Times Baseline Response, E^k” value in test [1] (setting [10]) is 1.5. In addition, the “Times Baseline Response, E^d” value in test [2] (setting [10]) is reported as 0.8.
With Ac-l RMKLPK-NH2 [AE160], the “Times Baseline Response, E^k” value in test [1] (setting [3]) turned out to be 1.7. In test [2] (setting [5]), the “Times Baseline Response, E^d” value is 11.0.
On to “Ac-LRMK N PK-NH2 (Ac-LRMKNPK-NH2) [AE232]”, for which the entries for the “Times Baseline Response, E^k” value in test [1] (setting [8]) and in test [1] (setting [14]) were 8.9 and 15.5, respectively. The “Times Baseline Response, E^d” value in test [2] (setting [9]) is on record as 12.5; in test [2] (setting [14]) it was 24.3.
